Assay results from publication PMC10349806 (Nature Communications, 2023).
“And” between values parts separate entries of the source, which are not always exact repeats. Equal values may be shown once.

Biological target: T1, PfCRT variant Y276A (Plasmodium falciparum, UniProt Q9N623, A220S/I356T/K76T/M74I/N326S/N75E/Q271E/R371I/Y276A)
T1 sequence (Q9N623 1-424 M74I/N75E/K76T/A220S/Q271E/Y276A/N326S/I356T/R371I): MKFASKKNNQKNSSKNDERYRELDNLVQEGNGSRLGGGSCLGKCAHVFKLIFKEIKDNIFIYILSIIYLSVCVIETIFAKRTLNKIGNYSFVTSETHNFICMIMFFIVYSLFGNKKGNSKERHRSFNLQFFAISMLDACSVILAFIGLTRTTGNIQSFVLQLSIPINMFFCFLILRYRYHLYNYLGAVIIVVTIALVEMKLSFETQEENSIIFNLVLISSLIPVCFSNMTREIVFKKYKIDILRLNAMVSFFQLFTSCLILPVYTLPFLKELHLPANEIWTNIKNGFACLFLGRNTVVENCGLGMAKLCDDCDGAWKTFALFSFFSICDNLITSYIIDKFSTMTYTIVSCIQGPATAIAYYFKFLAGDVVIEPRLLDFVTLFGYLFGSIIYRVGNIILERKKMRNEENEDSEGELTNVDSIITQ
Assay: CQ uptake assay, oocytes expressing Y276A
Format: cell-based
Protocol: Site-directed mutagenesis of PfCRT^Dd2 was performed as described using the megaprimer method with overlap extension[21],[54]. The primer pairs used are listed in Supplementary Table 6. Please note that a codon-optimized and oocyte-adapted version of PfCRT^Dd2 was used[22] (Supplementary Fig. 16). The resulting DNA fragment was cloned into the SP64T expression vector and verified by sequencing.
Oocytes were obtained as described previously. Briefly, adult (>2 years old) female X. laevis frogs (NASCO) were anesthetized in a cooled solution of ethyl 3-amino benzoate methanesulfonate (0.1%, w/v), followed by a surgical removal of parts of the ovary. The ovary lobes were carefully dissected and small pieces of oocytes were incubated in Ca^2+-free ND96 buffer (96 mM NaCl, 2 mM KCl, 1 mM MgCl2 buffered with 5 mM HEPES/NaOH, pH 7.5) supplemented with collagenase D (0.1%, w/v; Roche), BSA (0.5%, w/v), and 9 mm Na2HPO4 at 18 °C for 14-16 h while gentle shaking. After incubation, the oocytes were carefully washed several times with ND96 buffer (96 mM NaCl, 2 mM KCl, 1.8 mM CaCl2, 1 mM MgCl2 buffered with 5 mM HEPES/NaOH, pH 7.5) supplemented with 100 mg l^−1 gentamycin). Defolliculated and healthy-looking stage V-VI oocytes were manually selected for RNA microinjection. The RNA was generated as following: The codon-optimized sequences of PfCRT variants were cloned into the pSP64T expression vector. After vector linearization using the restriction endonucleases BamHI or SalI (New England Biolabs), transcription was performed using the in vitro SP6 mMessage mMachine Kit (Ambion)[34]. The obtained RNA was kept at −80 °C and diluted with nuclease-free water to a concentration of 0.6 μg μl^−1. Precision-bore glass capillary tubes (3.5-inch glass capillaries; Drummond Scientific Co.) were pulled on a vertical puller (P-87 Flaming/Brown micropipette puller, Sutter Instrument Co.), graduated, and placed on a microinjector (Nanoject II Auto-Nanoliter Injector, Drummond Scientific Co.). 50 nl of nuclease-free water alone (control oocytes) or 50 nl of 0.6 μg μl^−1 RNA were injected under stereomicroscopic control. Injected oocytes were incubated for 46–72 h at 18 °C with twice-daily buffer changes before usage in experiments.
Drug uptake assays were performed as described previously[21],[22],[24],[34]. […] The direction of radio-labeled drug transport is here from the mostly acidic extracellular solution (pH 4.5 or 6.0, as indicated) into the oocyte cytosol (pH ∼ 7.2), which corresponds to the efflux of drug from the acidic digestive vacuole (pH 5.2) into the parasite cytoplasm (pH 7.2). The topology of PfCRT in the oolemma is such that both the N- and C-terminus face the extracellular milieu[3],[22]. In the parasite, the N- and C-terminus face the lumen of the digestive vacuole. […] For determination of the amount of drug uptake for each oocyte, the reaction medium was removed and the oocytes were washed three times with 2 ml of ice-cold ND96 buffer. Each oocyte was individually transferred to a scintillation vial containing 5% sodium dodecyl sulfate (200 μl) for lysis. […] Oocytes that were injected with water instead of RNA were analyzed in parallel, representing the uptake of a drug by diffusion and/or endogenous permeation pathways. The resulting value represents the “background“ level of drug accumulation in oocytes (in-depth discussion in[22]). The specific PfCRT-mediated uptake was determined by subtracting the corresponding background value measured in water-injected oocytes from that of PfCRT-expressing oocytes. In all cases, at least three separate experiments were performed on oocytes from different frogs (biological replicate), and for each condition in an experiment, measurements were made from 10 oocytes per treatment. For pH 5.5, 6.0, and 6.5, ND96 was buffered with 5 mM MES/Tris base.

[1] = Y276A, 50 µM CQ, 1 h, mean ± SEM

CCN(CC)CCCC(C)Nc1ccnc2cc(Cl)ccc12 (stereo not drawn) [CQ, chloroquine]
Activity at pH 4.5 [1]: 1.50 ± 0.12 pmol h-1 oocyte-1
Activity at pH 6.0 [1]: 3.51 ± 0.35 pmol h-1 oocyte-1
R-value (Y276A, CQ transport at pH 4.5 / pH 6.0): 0.45 ± 0.09
Y276A transport activity pH 4.5 (pH 4.5, single replicates, Fig 1d left): 1.28 pmol oocyte-1 h-1 and 1.46 pmol oocyte-1 h-1
Y276A R-value (pH 4.5 vs pH 6.0, Fig 1d left): 0.34 and 0.66 and 0.36
Y276A transport activity pH 6.0 (pH 6.0, single replicates, Fig 1d left): 3.78 pmol oocyte-1 h-1 and 2.68 pmol oocyte-1 h-1 and 4.08 pmol oocyte-1 h-1
